Reference: US20240207198A1, “ELECTROSPUN STRUCTURES HAVING A PHARMACEUTICAL AND METHODS OF MAKING AND USING THE SAME” (NFS IP Holdings, LLC, priority 2020, published 2024)
Counter-ions that a name gives are not always drawn.

Experiments:
[1] = Oral vs. sublingual delivery of cannabidiol in a porcine model (plasma concentration by HPLC); assay type: in vivo, Yorkshire pigs; conditions: sublingual electrospun polyethylene oxide fiber scaffold ("strip") vs oral "gummy"; 10 mg cannabidiol each; representative pig 7-18; blood 3-120 min; FIG. 3
Protocol: Four healthy Yorkshire pigs were selected to receive both oral and sublingual administrations of cannabidiol (i.e., each animal received both an oral administration and a sublingual administration separated by 48 hours). For the sublingual administration, a scaffold comprising fibers as described herein was used for each animal. Specifically, the fibers were electrospun using a polymer solution comprising cannabidiol and 13 wt % 100,000 molecular weight polyethylene oxide dissolved in dichloromethane. The cannabidiol was dispersed within the resulting electrospun polyethylene oxide fibers, as described herein. The resulting electrospun polyethylene oxide fibers comprised 40 wt % cannabidiol (relative to the polyethylene oxide mass) and 50 wt % confectionary sugar (i.e., for every 10 mg of polyethylene oxide, 4 mg of cannabidiol and 5 mg of confectionary sugar were added).
(§1) The scaffold was placed under the tongue of each animal and allowed to dissolve in place. A catheter was placed in the animal's vein and used to withdraw blood at baseline and at 3, 9, 15, 30, 45, 60, and 120 minutes post-administration. […]
Each blood sample was analyzed using high-performance liquid chromatography (HPLC) to determine the plasma concentration of cannabidiol in ng/mL. […]

[2] = Oral vs. sublingual delivery of sildenafil citrate in a porcine model (plasma concentration by HPLC); assay type: in vivo, Yorkshire pigs; conditions: sublingual electrospun polyethylene oxide fiber scaffold ("strip") vs oral "pill", 25 mg sildenafil citrate each, representative pig 4-17, FIG. 4
Protocol: Four healthy Yorkshire pigs were selected to receive both oral and sublingual administrations of sildenafil citrate (i.e., each animal received both an oral administration and a sublingual administration separated by 48 hours). For the sublingual administration, a scaffold comprising fibers as described herein was used for each animal. Specifically, the fibers comprised were electrospun using a polymer solution comprising sildenafil citrate and 13 wt % 100,000 molecular weight polyethylene oxide dissolved in dichloromethane. The sildenafil citrate was dispersed within the resulting electrospun polyethylene oxide fibers, as described herein. The resulting electrospun polyethylene oxide fibers comprised 25 wt % sildenafil citrate (relative to the polyethylene oxide mass) and 50 wt % confectionary sugar (i.e., for every 10 mg of polyethylene oxide, 2.5 mg of sildenafil citrate and 5 mg of confectionary sugar were added).
as §1
Each blood sample was analyzed using HPLC to determine the plasma concentration of sildenafil citrate in ng/mL. […]

Structure (SMILES) | plasma concentration of cannabidiol, sublingual compared to oral administration [1] | duration of the higher plasma concentration of sildenafil citrate, sublingual compared to oral administration [2] | plasma concentration of sildenafil citrate, sublingual compared to oral administration ([2]; blood 3-120 min)
C=C(C)[C@@H]1CCC(C)=C[C@H]1c1c(O)cc(CCCCC)cc1O [cannabidiol] | higher plasma concentration in a shorter period of time |  | 
CCCc1nn(C)c2c(=O)[nH]c(-c3cc(S(=O)(=O)N4CCN(C)CC4)ccc3OCC)nc12 [sildenafil citrate] |  | maintained the higher plasma concentration over a longer period of time | higher plasma concentration in a shorter period of time
